Measured values taken from patent publication US20100285611A1, “PHOTOBLEACHING RESISTANT PH SENSITIVE DYE NANOREACTORS WITH DUAL WAVELENGTH EMISSION” (priority 2009, published 2010).
Read-outs that look alike come from different tables or passages of the source.

Legend:
[1] = pH dependent fluorescence emission spectra of cSNARF-1 (modified Henderson-Hasselbalch analysis); type: physicochemical
Protocol: Absorption spectra were obtained using a UV Mini 1240 spectrophotometer (Shimadzu Scientific Instruments, Columbia, Md.) in a 1-cm path length quartz cuvette. The total concentration of encapsulated cSNARF-1 in the suspensions was determined at pH 7 using the extinction coefficient of 27,000 L-mol-1-cm-1 at the absorbance maximum of 548 nm. Fluorescence spectra were obtained using a Cary Eclipse fluorescence spectrophotometer (Varian, Walnut Creek, Calif.) with excitation wavelength of 514 nm and collecting emissions over the range of 550 nm to 750 nm at room temperature. […] The pH was adjusted using 0.1 N HCl or NaOH, starting from pH 7 to either the higher or lower limit of pH and back. All spectra were corrected for dilution.
A more quantitative analyses of these changes in fluorescence intensity may be carried out using the modified Henderson-Hasselbalch equation. For a dye with dual wavelength emissions, the ratio of fluorescence intensity over a given pH range elucidates the dye's pKa as:
where Ri is the fluorescence intensity ratio of the two wavelengths (582 nm and 635 nm) at pHi, Rmin and Rmax are the minimum and maximum limiting values of Ri, respectively. The value of I(A)/I(B) is obtained from the emission intensities at 635 nm for the limiting acidic, I(A), and basic, I(B), pH regions. In practice, to elucidate the pKa of each sample, first the pH1/2 value, at which (Ri−Rmin)=(Rmax−Ri) or R1/2=(½) (Rmax+Rmin) was determined to make the second term of the right hand side of equation equal to zero. The value of pH1/2 was then subtracted by log(I(A)/I(B)) to estimate the pKa value.
To estimate the pH1/2 and I(A)/I(B) from the experiment, the fluorescence intensity changes at 635 nm and 582 nm, and their ratios were plotted against the pH values as shown in FIG. 4B. For elucidation of both pH1/2 and I(A)/I(B), it is important to note that well defined limiting intensities at both extreme ends of acidic and basic pHs must be available. Furthermore, the spectral changes shown in each of FIG. 4A should have a well defined isoemissive point to assure that the integrity of spectral chromophores is maintained throughout the entire pH range. Once pH1/2, Rmin, Rmax, and I(A)/I(B) are determined, the value for “c” may be estimated from the least squares fit of the equation to the experimental results shown as filled circles in FIG. 4B.

[2] = Stopped flow kinetics of fluorescence response to pH change; type: physicochemical
Protocol: The time dependent response of cSNARF-1 solution and nanoreactors to the pH change was measured at 20° C. using an RX2000 Stopped-Flow Mixing Accessory (Applied Photophysics Limited, Leatherhead, UK) attached to the Cary Eclipse fluorescence spectrophotometer. The mixing time of this system is reported to be 8 msec, and the response time of Eclipse is 1 msec. To estimate the response time of the nanoreactors, they were first adjusted to pH 10 then mixed with a 50 mM phosphate buffer solution at pH 2. By exciting cSNARF-1 at 514 nm during this process, the pH-responsive fluorescence change at 582 nm was recorded.

[3] = at room temperature; cited from earlier work
[4] = Photobleaching under 300 W Xenon lamp; type: physicochemical; details: after 100 minutes; 300 W Xenon lamp 15 cm away; DI water pH 9; 30° C.; 640 nm
Protocol: cSNARF-1 in DI water at pH 9 and the nanoreactors in the same solvent was placed into covered 1 cm-path length quartz cuvettes and kept at 30° C. using a circulating water bath while being continuously exposed to the emission of a 300 W Xenon lamp placed 15 cm away. […] The fluorescence intensity at 640 nm was recorded at 5 or 10 minute intervals.

[5] = solvent Water, excitation 514 nm

5-(and-6)-Carboxy-seminaphthorhodafluor-1 [cSNARF-1]
Acidic peak ([1]; solvent 1.5% IgG sln): 584 nm
Basic peak ([1]; solvent 1.5% IgG sln): 633 nm
c ([1]; solvent 1.5% IgG sln): −0.78
log{I[A]/I[B]} ([1]; solvent 1.5% IgG sln): −0.47
pH 1/2 ([1]; solvent 1.5% IgG sln): 7.25
pKa ([1]; solvent 1.5% IgG sln): 7.72
pKa ([1]; solvent Water): 7.46
log{I[A]/I[B]} ([1]; solvent Water, emission intensities at 635 nm, limiting acidic and basic pH): −0.31
Acidic peak [1, 5]: 581 nm
Basic peak [1, 5]: 633 nm
pH 1/2 ([1]; solvent Water, excitation 514 nm, room temperature): 7.15
c ([1]; solvent Water, least squares fit of Equation 1): −1.17
time for change in fluorescence intensity (67%) ([2]; pH change from pH 10 to 5, average of three traces (FIG. 7 legend)): 175 ms
time for 65% change in fluorescence intensity (t65%) ([2]; response to pH change, average of three traces, 20° C., excitation 514 nm, emission 582 nm): 175 ms
pKa [3]: 7.5
loss of fluorescence intensity [4]: 30%
